Reference: ChEMBL document CHEMBL6109106, “Rational design, synthesis and anti-inflammatory activity of 6-substituted dihydrobenzophenanthridine derivatives” (Bioorg Med Chem, 2025)
Activity calls are given as the source filed them. The rule behind the calls is not given here.

How the values were obtained:
RAW264.7 [1] = test: Anti-inflammatory activity in LPS-induced mouse RAW264.7 cells assessed as NO emission at 20 uM preincubated with compound for 1 hrs followed by LPS stimulation and measured after 24 hrs by Griess reagent based analysis (reference value: 14.05 +/- 1.19 microM); format: functional; conditions: time 25 hrs
RAW264.7 [2] = test: Anti-inflammatory activity in LPS-induced mouse RAW264.7 cells assessed as inhibition of NO release at 20 uM preincubated with compound for 1 hrs followed by LPS stimulation and measured after 24 hrs by Griess reagent based analysis (reference value: 0 %); format: functional; conditions: for inhibition (INH): time 25 hrs; for inhibition at 20 µM: Mus musculus
RAW264.7 [3] = test: (§1) Cytotoxicity against mouse RAW264.7 cells assessed as survival rate at 20 uM incubated for 24 hrs by MTT assay (reference value: 100 %); format: toxicity, cell-based; conditions: raw264.7, 24 h, 20 µM
[4] = as §1; format: toxicity, cell-based; conditions: RAW264.7 cells, read-out: Survival
Mus musculus [5] = test: Anti-inflammatory activity in DSS-induced acute colitis male C57BL/6 mouse model assessed as reduction in infiltration of inflammatory cells in colon at 200 mg/kg, po administered for 7 days by H and E staining based analysis; format: functional, organism-based; conditions: time 7.0 day
Mus musculus [6] = test: Anti-inflammatory activity in DSS-induced acute colitis male C57BL/6 mouse model assessed as complete colonic mucosa with crypts at 200 mg/kg, po administered for 7 days by H and E staining based analysis; format: functional, organism-based; conditions: time 7.0 day

| SMILES | Activity (RAW264.7 [1]) [µM] | inhibition (INH) (RAW264.7 [2]) [%] | Survival (RAW264.7 [3]) [%] | inhibition at 20 µM (RAW264.7 [2]; RAW264.7, 25 h) [%] | viability at 24 h, 20 µM [4] [%] | inhibition at 20 µM (RAW264.7 [2]; RAW264.7, time 25 hrs) [%] | Activity (Mus musculus [5]) | Activity (Mus musculus [6]) |
| --- | --- | --- | --- | --- | --- | --- | --- | --- |
| CN1c2c(ccc3cc4c(cc23)OCO4)-c2ccc3c(c2C1CC(=O)O)OCO3 (stereo not given) | 9.55 | 31.45 | 93.19 |  |  |  |  |  |
| CCC(C)C1c2c(ccc(OC)c2OC)-c2ccc3cc4c(cc3c2N1C)OCO4 (stereo not given) | 11.52 |  |  | 17 | 91.3 |  |  |  |
| CCOC(=O)CC1c2c(ccc(OC)c2OC)-c2ccc3cc4c(cc3c2N1C)OCO4 (stereo not given) | 9.56 |  |  | 31.3 | 94.4 |  |  |  |
| CCOC(=O)CC1c2c(ccc3c2OCO3)-c2ccc3cc4c(cc3c2N1C)OCO4 (stereo not given) | 10.5 |  |  | 24.5 | 109 |  |  |  |
| COC(=O)C(C)C1c2c(ccc(OC)c2OC)-c2ccc3cc4c(cc3c2N1C)OCO4 (stereo not given) | 11.2 |  |  | 19 | 101 |  |  |  |
| CN1Cc2c(ccc3c2OCO3)-c2ccc3cc4c(cc3c21)OCO4 [DIHYDROSANGUINARINE] | 10.36 |  |  |  | 88.7 | 26.1 |  |  |
| CCCOC(=O)C(C)C1c2c(ccc(OC)c2OC)-c2ccc3cc4c(cc3c2N1C)OCO4 (stereo not given) | 12.5 |  |  | 10.3 | 122 |  |  |  |
| COc1ccc2c(c1OC)C(CC(=O)O)N(C)c1c-2ccc2cc3c(cc12)OCO3 (stereo not given) | 9.1 | 34.87 | 82.98 |  |  |  |  |  |
| COC(=O)CCC1c2c(ccc3c2OCO3)-c2ccc3cc4c(cc3c2N1C)OCO4 (stereo not given) | 10.94 |  |  | 21.4 | 110 |  |  |  |
| C=C(CC1c2c(ccc(OC)c2OC)-c2ccc3cc4c(cc3c2N1C)OCO4)C(=O)OC (stereo not given) | 10.14 |  |  | 27.2 | 130 |  |  |  |
| Nc1ccc(O)c(C(=O)O)c1 |  |  |  |  |  |  | Active | Active |
| CCC(C)C1c2c(ccc3c2OCO3)-c2ccc3cc4c(cc3c2N1C)OCO4 (stereo not given) | 13.15 |  |  | 5.57 | 114 |  |  |  |
